Patent US20170248586A1, “Marker For Depression, Assay Method, Method For Determining Depression, Screening Method For Antidepressants, And Kit” (MEIJO UNIVERSITY, priority 2013, published 2017)

Legend:
[1] = test system: MAGE-D1 gene-deficient mice; assay: Forced swim test, evaluation of depression-like behavior in model mice; format: in vivo, mouse; details: for average value of immobility time: immobility measured for 10 minutes, 0 mg/kg group 425 seconds; for depression-like behavior in model mice: FIG. 1A desipramine, FIG. 1B atomoxetine; for increase in immobility time of model mice in the forced swim test (result in words): desipramine 10 mg/kg or atomoxetine 3 mg/kg i.p., FIGS. 1A and 1B
Text: A targeting vector (Stratagene: pBlueScript) for homologous recombination between a MAGE-D1 gene (Gene bank: NM_019791.2) exon and a drug (G418)-resistant gene (GenBank: U00004.1) was electroporated into embryo stem (ES) cells derived from 129Svj mice (supplied from National Center for Geriatrics and Gerontology), and drug-resistant colonies were selected. A homologous recombinant was identified from the selected drug-resistant colonies by Southern blotting. The identified target homologous recombinant ES cell clone was injected into C57BL/6J mouse blastocyst-stage embryos to generate chimeric mice. The chimeric mice were mated with wild-type C57BL/6J mice to generate F1 heterozygous MAGE-D1 gene-deficient mice. The heterozygous MAGE-D1 gene-deficient mice were mated with wild-type C57BL/6J mice up to the F10 generation. The mice having a 99.9% C57BL/6J genetic background were used (When mating with a C57BL/6J mouse is performed once, about half of the genes of a newborn mouse are derived from the C57BL/6J mouse used for mating. That is, it is considered that when mating with a C57BL/6J mouse is performed n times, about [1−(½)^n+1]×100% of genes are derived from the C57BL/6J mouse.) The mice having such a genetic background were defined as MAGE-D1 gene-deficient mice (hereinafter, also referred to as model mice) and used in the following tests.
(§1) Experimental Equipment and Procedure: A water bath (diameter 15 cm×height 20 cm) filled with water (water temperature: about 22° C., depth: 13 cm) was used as experimental equipment. A wild-type C57BL/6J mouse as a control or a model mouse was placed in the water bath, and just after that, immobility time was measured by Scanet MV-10 AQ (Brain Science Idea, Osaka, Japan) every 1 minute for 10 minutes.
(§2) Thirty minutes before the test, 10 mg/kg of desipramine (Sigma, St. Louis, Mo.) or 3 mg/kg of atomoxetine (LKT Laboratories, Inc, MN) dissolved in normal saline was intraperitoneally administered. As a control, the solvent was intraperitoneally administered.
(§3) In Examples, MAGE-D1 gene-deficient mice were used as animal models. The forced swim test was used for evaluating depression-like behavior. In the forced swim test, a mouse is placed in a narrow cylinder filled with water so as to recognize the impossibility of escape therefrom, and the time that the mouse floats on water without moving is evaluated as decreased motivation. […] Each administration test was performed in triplicate, and therefore graphs in FIGS. 1A and 1B show average values.

wild-type C57BL/6J mouse = assay: Forced swim test in control mice; format: in vivo; details: immobility measured for 10 minutes, 0 mg/kg group 203 seconds
Procedure: as §1, §2, §3

[2] = 10 mg/kg intraperitoneally 30 min before test
[3] = 3 mg/kg intraperitoneally 30 min before test

Structure (SMILES) | average value of immobility time [1, 2] [s] | depression-like behavior in model mice [1] | increase in immobility time of model mice in the forced swim test (result in words) [1] | average value of immobility time (wild-type C57BL/6J mouse; [2]) [s] | average value of immobility time [1, 3] [s] | average value of immobility time (wild-type C57BL/6J mouse; [3]) [s]
CNCCCN1c2ccccc2CCc2ccccc21 [desipramine] | 334 | relieved | significantly reduced | 215 |  | 
CNCC[C@@H](Oc1ccccc1C)c1ccccc1 [atomoxetine] |  | relieved | significantly reduced |  | 283 | 205
